In ChEMBL document CHEMBL2028040, “Malaria Box”:

Key:
Trypanosoma cruzi = assay: MMV: Inhibition of Trypanosoma cruzi (Tulahuen C4 LacZ) (Chagas in vitro).; assay type: functional, organism-based
[1] = test system: Trypanosoma brucei rhodesiense; assay: MMV: Inhibition of Trypanosoma brucei rhodesiense (STIB 900) (HAT in vitro).; assay type: functional, organism-based
Plasmodium falciparum = assay: MMV: Inhibition of Plasmodium falciparum 3D7 at 5uM compound concentration.; assay type: functional
[2] = MMV: Cytotoxicity against human fibroblasts (MRC-5) cells.; conditions: MRC-5 cells (human fibroblasts)
[3] = test system: Trypanosoma brucei brucei; assay: MMV: Inhibition of Trypanosoma brucei brucei (Squib 427) (HAT in vitro).; assay type: functional, organism-based
Leishmania infantum = assay: MMV: Inhibition of Leishmania infantum (MHOM/MA/BE/67) in vitro.; assay type: functional, organism-based

| SMILES | IC50 (Trypanosoma cruzi) | IC50 [1] | IC50 [3] | IC50 (Leishmania infantum) | inhibition at 5 µM (Plasmodium falciparum) | IC50 [2] |
| --- | --- | --- | --- | --- | --- | --- |
| COc1cccc(C(=O)Nc2ccc(-c3nc4ccccc4[nH]3)cc2)c1 | > 32 µM | > 32 µM | > 32 µM | 16.2 µM | 83% | > 32 µM |
| COc1cc2cc(C(=O)Nc3ccccc3)c(N)nc2cc1OC | > 32 µM | > 32 µM | > 32 µM | > 32 µM | – | > 32 µM |
| CC(C)(C)c1ccc(C(=O)Nc2nc3ccccc3s2)cc1 | > 32 µM | > 32 µM | > 32 µM | > 32 µM | 81% | > 32 µM |
| N=c1c2ccccc2nnn1-c1cccc(C(F)(F)F)c1 | > 32 µM | > 32 µM | > 32 µM | > 32 µM | 83% | > 32 µM |
| COc1ccc(-c2nonc2NC(=O)c2cccc(C)c2)cc1OC | > 32 µM | > 32 µM | > 32 µM | > 32 µM | 95% | > 32 µM |
| CCOc1cccc(C(=O)Nc2ccc(-c3nc4ccccc4[nH]3)cc2)c1 | > 32 µM | > 32 µM | > 32 µM | 16.2 µM | – | > 32 µM |
| CCCC(c1nnnn1C1CCCCC1)N1CCN(C(=O)c2ccco2)CC1 (stereo not drawn) | > 32 µM | > 32 µM | > 32 µM | > 32 µM | 82% | > 32 µM |
| O=C(c1ccccc1F)N(Cc1ccc(Cl)cc1)c1ccccn1 | > 32 µM | > 32 µM | > 32 µM | > 32 µM | 59% | > 32 µM |
| FC(F)(F)c1ccc(Nc2nnnc3ccccc23)cc1 | > 32 µM | > 32 µM | > 32 µM | > 32 µM | 77% | > 32 µM |
| CCCc1c(C)nc2ccccc2c1O | > 32 µM | > 32 µM | > 32 µM | > 32 µM | 88% | > 32 µM |
| CCOc1ccccc1NC(=O)CN1CCN(C(=O)c2ccco2)CC1 | > 32 µM | > 32 µM | > 32 µM | > 32 µM | 83% | > 32 µM |
| CCN1CCN(c2c(C(=O)c3ccccc3)cnc3cc(OC)c(OC)cc23)CC1 | > 32 µM | 17.9 µM | > 32 µM | > 32 µM | 59% | > 32 µM |
| O=C(Nc1ccsc1C(=O)NC1CCCCC1)c1ccc(F)cc1 | > 32 µM | > 32 µM | > 32 µM | > 32 µM | 86% | > 32 µM |
| O=C(Nc1ccccc1O)c1ccc(Oc2cccc(C(=O)Nc3ccccc3O)c2)cc1 | > 32 µM | > 32 µM | > 32 µM | > 32 µM | 91% | > 32 µM |
| CN(C)c1ccc(N=Cc2ccc(N3CCOCC3)cc2)cc1 | 17 µM | 3.51 µM | 13.3 µM | 10.1 µM | 96% | > 32 µM |
| CCC(=O)Nc1nnc(Cc2ccc(OC)c(OC)c2)s1 | > 32 µM | > 32 µM | > 32 µM | > 32 µM | 47% | > 32 µM |

| SMILES | IC50 (Trypanosoma cruzi) | IC50 [1] | IC50 [3] | IC50 (Leishmania infantum) | inhibition at 5 µM (Plasmodium falciparum) | IC50 [2] |
| --- | --- | --- | --- | --- | --- | --- |
| CCCCN(CCCC)S(=O)(=O)c1ccc(NC(=O)c2ccco2)cc1 | > 32 µM | 16.3 µM | > 32 µM | > 32 µM | 78% | > 32 µM |
| Oc1ccc2ccccc2c1CNc1nc2ccccc2[nH]1 | > 32 µM | 8.65 µM | 16.1 µM | > 32 µM | 83% | > 32 µM |
| COc1ccc(N2CCN(C(CNC(=O)CC(C)(C)C)c3ccc4c(c3)OCO4)CC2)cc1 (stereo not drawn) | 19.7 µM | 27.6 µM | > 32 µM | > 32 µM | 95% | > 32 µM |
| CCOC(=O)c1c[nH]c2c(CC)cccc2c1=O | > 32 µM | > 32 µM | > 32 µM | > 32 µM | 87% | > 32 µM |
| Cc1ccc(-c2nc3ccccc3o2)cc1NCc1cc(Cc2ccccc2)ccc1O | > 32 µM | > 32 µM | > 32 µM | 16.2 µM | 64% | > 32 µM |
| O=c1c2c([nH]c3ccccc13)CCCC2 | > 32 µM | > 32 µM | > 32 µM | > 32 µM | 82% | > 32 µM |
| Oc1c2c(nc3cc(-c4ccccc4)nn13)CCCC2 | > 32 µM | 8 µM | 12.8 µM | > 32 µM | 77% | > 32 µM |
| O=C(Nc1ccc(Cl)cc1C(=O)Nc1ccncc1)c1ccc(Cl)cc1Cl | > 32 µM | > 32 µM | > 32 µM | > 32 µM | 94% | > 32 µM |
| Cc1ccc(C)c(-c2csc(Nc3ccc(C)c(C)c3)n2)c1 | 19.3 µM | 22.8 µM | > 32 µM | > 32 µM | 94% | > 32 µM |
| O=C(NC1CCCC1)c1ccc(N2CCC(NCc3cccc(C(F)(F)F)c3)CC2)cc1 | 21.3 µM | 14.4 µM | > 32 µM | 16.6 µM | 93% | > 32 µM |
| Cn1c(C(=O)c2cccc3ccccc23)nc2ccccc21 | > 32 µM | 29.2 µM | > 32 µM | 16 µM | 89% | > 32 µM |
| O=C(CSc1ccc2nnc(-c3cccc(F)c3)n2n1)Nc1ccc2c(c1)OCO2 | > 32 µM | > 32 µM | > 32 µM | > 32 µM | 92% | > 32 µM |
| CC(=O)c1ccc(NC(=O)CSc2nc(-c3ccccc3Cl)ns2)cc1 | > 32 µM | > 32 µM | > 32 µM | > 32 µM | – | > 32 µM |
| COc1ccc(-c2nonc2NC(=O)c2cccc(Cl)c2)cc1OC | > 32 µM | > 32 µM | > 32 µM | > 32 µM | – | > 32 µM |
| O=C(Nc1ccc(-c2nc3cc(NC(=O)c4ccc(Cl)cc4)ccc3[nH]2)cc1)c1ccc(Cl)cc1 | > 32 µM | > 32 µM | > 32 µM | > 32 µM | – | > 32 µM |

These reach a lower IC50 (Trypanosoma cruzi). Values come first.

| IC50 (Trypanosoma cruzi) | IC50 [1] | IC50 [3] | IC50 (Leishmania infantum) | SMILES | inhibition at 5 µM (Plasmodium falciparum) | IC50 [2] |
| --- | --- | --- | --- | --- | --- | --- |
| 16.1 µM | 16 µM | 15.6 µM | 16 µM | Oc1ccc(Cl)cc1CNc1nc2ccccc2[nH]1 | 95% | 15.9 µM |
| 2.32 µM | 16 µM | 14.6 µM | > 32 µM | COc1ccc(C)c2sc(N(Cc3cccnc3)C(=O)c3ccc(C#N)cc3)nc12 | 91% | > 32 µM |
| 16.3 µM | 30.3 µM | > 32 µM | > 32 µM | O=C1CC(O)(C(F)(F)C(F)(F)F)Oc2ccccc21 (stereo not drawn) | 95% | 18.1 µM |
| 0.963 µM | 1.05 µM | 1.15 µM | > 32 µM | Oc1c(CN2CCN(c3ccccc3F)CC2)cc(Br)c2cccnc12 | 91% | 5.58 µM |
| 4.13 µM | 3.82 µM | 32 µM | > 32 µM | CCOC(=O)c1cnc2ccc(OC)cc2c1Nc1ccc(N2CCN(C)CC2)cc1 | – | 13.9 µM |
| 15.3 µM | 25.3 µM | > 32 µM | > 32 µM | FC(F)(F)c1cccc(Nc2nc(-c3ccccc3)nc3ncccc23)c1 | 74% | > 32 µM |
| 4.17 µM | 16.1 µM | 16 µM | 4.06 µM | O=c1nc(C=Cc2ccc(Br)cc2)oc2ccccc12 | 94% | 4 µM |
| 15 µM | 5 µM | 16.5 µM | 16 µM | COc1ccc(-c2cn3c(C(=O)Nc4ccccc4Cl)c(-c4ccccc4)c4c3n2CCCC4)cc1 | 80% | > 32 µM |
| 6.29 µM | 4.03 µM | 5.81 µM | > 32 µM | Cc1ccc(NC(=O)Nc2cccc(Cl)c2)cc1F | 52% | > 32 µM |
| 0.343 µM | 0.7 µM | 0.657 µM | 16.2 µM | O=C(Nc1cccc(C(F)(F)F)c1)c1cc(Cl)ccc1O | 93% | 0.241 µM |
| 14.6 µM | 10.9 µM | 16.2 µM | 16.2 µM | COc1ccc(C(=O)Nc2ccc3nc(N4CCCCC4)cc(C)c3c2)cc1OC | – | 16.4 µM |
| 15.9 µM | 0.971 µM | 3.33 µM | 13.6 µM | Cc1ccc(CN2CCC(C(=O)Nc3ccc(-c4cc5ccccc5[nH]4)cc3)CC2)o1 | 77% | 15.7 µM |
| 12.2 µM | 4.12 µM | 12.4 µM | 4.32 µM | OC1CCCCC1C1(NC(=S)Nc2ccccc2)CCCCC1 (stereo not drawn) | 59% | > 32 µM |
| 13.7 µM | 0.679 µM | 14.3 µM | 16.2 µM | CCN(CC)c1cc(C)c2cc(NC(=O)c3cccc(OC)c3)ccc2n1 | – | 15.3 µM |
| 11.8 µM | 3.14 µM | 16.4 µM | > 32 µM | CC(C)(C)C(=O)Nc1ccc(C(=O)Nc2cccc(-c3nc4ccccc4[nH]3)c2)cc1 | 91% | 17.9 µM |
| 6.59 µM | 3.22 µM | 4.78 µM | 6.35 µM | CCN1CCN(c2cc(C)c3cc(NC(=O)c4ccc(OC)c(OC)c4)ccc3n2)CC1 | – | 5.46 µM |
